Assay results from paper PMC8605905 (Oxidative Medicine and Cellular Longevity, 2021).

Legend:
CRE-GFP 293 cells [1] = assay: CRE-GFP 293 reporter cell assay (flow cytometry); format: cell-based, Human; conditions: 0.5–2 μM for 5 h
Description: Using the pCRE-MetLuc2-Reporter plasmid (Clontech, Mountain View, CA, USA) as a template, the DNA fragment containing the cAMP response element (CRE) motifs and TATA-like promoter (PTAL) flanked by MluI and AgeI restriction sites was amplified by PCR using sense ([…], MluI site underlined) and antisense ([…], AgeI site underlined) primers. The amplified CRE-PTAL promoter fragment was cloned into pGEM-T Easy (Promega, Madison, WI, USA) and sequenced. The CRE-PTAL-containing MluI/AgeI fragment and GFP-containing AgeI/NotI fragment (from pEGFP-N1; Clontech) were subcloned into MluI- and NotI-digested pcDNA5/FRT/TO (Novagen, Madison, WI, USA). The resulting construct with CRE-PTAL-driving GFP was used to establish 293 GFP reporter cells by targeting insertion into Flp-In-293 cells according to the supplier's instructions (Invitrogen). The cells were grown in a medium containing 5 μg/ml blasticidin and 100 μg/ml hygromycin.
(§1) On day 1, CRE-GFP 293 cells were seeded into 48-well plates (5 × 10^4/well). After 24 h, cells were treated with Ca^2+ ionophore (2 μM) (Sigma-Aldrich) for 0–24 h. Cell viability was measured using 3,(4,5-dimethylthiazol-2-yl)-2,5-diphenyltetrazolium bromide (MTT) assay (Sigma-Aldrich). The absorbance of the insoluble purple formazan dye was quantified at 570 nm on a μQuant microplate spectrophotometer (Bio-Tek). In addition, the cells were treated with the Ca^2+ ionophore A23187 (0.5–10 μM) (Sigma-Aldrich) for 5 h, followed by analysis of GFP fluorescence by flow cytometry (Becton–Dickinson, Franklin Lakes, NJ, USA) with excitation/emission wavelengths at 488/507 nm. To monitor CREB activation, cells were treated with forskolin or coumarin-chalcone derivatives (5–10 μM) in the presence or absence of Ca^2+ ionophore (2 μM) for 5 h, and GFP fluorescence was analysed.
To monitor the cAMP-mediated signal transduction pathway, CRE-GFP 293 cells in 6-well plates (1 × 10^6/well) were pretreated with kinase inhibitor H-89 (LC Laboratories, Woburn, MA, USA), KN-62 (Cayman Chemical, Ann Arbor, MI, USA), U0126 (LC Laboratories), or wortmannin (LC Laboratories) (10 μM) for 4 h before forskolin or LM-021 (10 μM) addition for 5 h. GFP fluorescence/protein and total/phosphorylated PKA, CaMKII, ERK, PI3K, and CREB levels were examined. In addition, Aβ-GFP or ∆K280 tauRD-DsRed SH-SY5Y cells were treated with retinoic acid (10 μM) on day 1, followed by the addition of LM-021 (5 or 10 μM) and doxycycline (5 or 2 μg/ml) on day 2, as described. Kinase inhibitors (10 μM) were added on day 6. On day 8, the cells were collected for protein expression analysis of BDNF, BCL2 (BCL2 apoptosis regulator), and BAX (BCL2 associated X, apoptosis regulator), and total/phosphorylated PKA, CaMKII, ERK, PI3K, and CREB. Also, cells were stained with DAPI and assessed for neurite outgrowth as described above.

CRE-GFP 293 cells [2] = assay: MTT cell viability of CRE-GFP 293 cells; format: cell-based, Human; conditions: 2 μM for 3–6 h
Description: as §1

[3] = in vivo, po; cited from earlier work

Structure (SMILES)	CRE-motif-driven GFP expression (CRE-GFP 293 cells [1])	Cell viability (MTT) (CRE-GFP 293 cells [2])	Share of orally administered dose that enters the brain [3]
CNc1ccc2oc(C[C@H]3O[C@@]4(CC[C@H]3C)O[C@H]([C@H](C)C(=O)c3ccc[nH]3)[C@H](C)C[C@H]4C)nc2c1C(=O)O [Ca^2+ ionophore]	stimulated	No significant cell death	–
N[C@@H](Cc1ccc(O)c(O)c1)C(=O)O [levodopa]	–	–	about 1%
